Assay results: patent publication US9285358B2, “Vitro method for high throughput screening of genotoxic agents in eukaryotic cells” (ANTHEM BIOSCIENCES PVT LTD, priority 2011, dated 2016)
Where two headings read alike, the source gives them in different places.

How the values were obtained:
[1] = system: HCT116-p21RLuc-GADD153hFLuc-p53Bgal cells; settings: 24 h, MA: metabolic activation using S9 fraction mix
Method: The luminescence and absorbance data are transported into Microsoft excel spreadsheet and the fold change in the reporter gene expressions is calculated by normalizing with the data from vehicle treated control wells. The graph is plotted with test compound concentrations on X axis, cell viability percentage (from MTT assay) on primary Y axis and reporter gene fold induction on the secondary Y axis. […] The genotoxic threshold is set at 1.5 fold change (i.e. 50% more than vehicle treated control). The genotoxic LEC is the lowest effective test concentration that produced at least one of the reporter gene inductions of more than 1.5 threshold. The genotoxicity threshold is not calculated for test concentrations that result in less than 50% cell viability. […]
The genotoxic potential of metabolites of test compounds is assessed by incubating the compound in the Anthem's Genotox sensor cells for 3 hours with S9 of Aroclor 1254-treated rats (1% mix), procured from Moltox, Cat #11-101.5. […]
10^3 cells were seeded per well in 100 μl of McCoy's media with 10% FBS was incubated overnight (37° C., 5% CO2, 100% humidity) in a 96-well plates (as two sets). […] The plate was gently shaken for 10 minutes on a microplate shaker and then taken to the microplate reader to obtain the luminescence reading. […]

[2] = system: HCT116-p21RLuc-GADD153hFLuc-p53Bgal cells; experiment: Anthem's Genotox assay (reporter gene induction p21-RLuc, GADD153-hFLuc, p53-Bgal); settings: for Anthem's Genotox assay: LEC in μg/ml (genotoxic lowest effective test concentration): at least one reporter induction above 1.5 fold threshold
Method: The assay protocol standardized by us is described here. A stock of the test compound is prepared in 2% v/v solvents (including but not limited to DMSO or PBS) and this stock is used to make serial dilutions for the assay. […] The test compound is assayed for cell viability by standard cell viability/cytotoxicity assays (for example MTT assay as shown in the graphs).
The MTT assay is performed using the MTT reagent (Sigma) dissolved in PBS (5 mg/ml). Briefly, the Genotox sensor cells are incubated with ten fold serial dilutions of the test compound in a 96-well microplate. After 24 h of incubation, 10 μl of the MTT solution is added to each well of the 96-well plate and incubated for 1 hour at 37° C. The medium is discarded (in a fume hood) and 100 μl DMSO is added to the wells. The plate is shaken for 10 min and absorbance is measured at 540 nm.
For the genotoxicity assay, 16 h prior to compound treatment, the engineered Anthem's Genotox sensor cells are seeded in 96-well microplates (10,000 cells per well). […] The test compound is added in two-fold serial dilutions and the microplate is incubated at 37 C, 5% CO2 and 95% humidity for 24 or 48 h depending on the experiment requirements.
The cells are lysed after 24 or 48 h with the 60 μl of lysis buffer per well (the lysis buffer composition has been optimized at Anthem Biosciences to be compatible with luciferase and beta galactosidase assays; 50 ml of Lysis buffer contains 7.5 ml of 1M HEPES at pH 8.0, 125 μl of Triton X 100, 50 mg of Porcine gelatin, 5 ml of glycerol and 25 μl of Antifoam). For each of the luciferase assays (Renilla and Firefly luciferase) 10 μl of the lysate is used, while 30 μl of the lysate is used for the beta galactosidase assay and total protein is estimated using the remaining 10 μl of the lysate by Bradford reagent.
The Renilla luciferase assay is performed using luciferase assay buffer (0.5 M NaCl, 0.1 M Potassium phosphate buffer pH 7.2, 1 mM Di-Sodium EDTA, 1 mg/mL porcine gelatin, 50 mM Potassium iodide) containing 1 μg/well coelentrazine (1 mg/ml stock prepared in 100% methanol). The firefly luciferase assay is performed with the same luciferase assay buffer containing 100 μM D luciferin, 150 μM ATP and 80 μM Coenzyme A. The assay plate is gently shaken for 10 minutes on a microplate shaker (to fully mix the contents of each well). Then the plate is taken to the microplate reader and the luminescence data are collected from the microplates. […] The Luminiscence data are collected with an integration time of 10 seconds and a delay of 2 seconds.
The beta galactosidase assay is carried out with Z assay buffer (50 ml buffer contains 0.4265 g of Na2HPO4, 0.275 g of NaH2PO4, 500 μl of 1M KCl, 50 μl of 1M MgSO4; for every 10 ml, 27 μl of Beta mercaptoethanol is added) and the substrate […] ONPG (1 ml of 10× ONPG stock-20 mg/ml). Once the yellow colour develops, 50 μl 1M Na2CO3 is added per well and the reading is taken at A420.
The luminescence and absorbance data are transported into Microsoft excel spreadsheet and the fold change in the reporter gene expressions is calculated by normalizing with the data from vehicle treated control wells. The graph is plotted with test compound concentrations on X axis, cell viability percentage (from MTT assay) on primary Y axis and reporter gene fold induction on the secondary Y axis. […] The genotoxicity threshold is not calculated for test concentrations that result in less than 50% cell viability. […]

[3] = assay time 24 h, no metabolic activation

O=P1(N(CCCl)CCCl)NCCCO1 (stereo not shown) [Cyclophosphamide]
Anthem's Genotox assay: LEC in μg/ml (genotoxic lowest effective test concentration) [1]: > 55.82 µg/mL | Anthem's Genotox assay: Result (assay time in h) [1]: + (positive for genotoxicity)

COc1cc([C@@H]2c3cc4c(cc3[C@@H](O[C@@H]3O[C@@H]5CO[C@@H](C)O[C@H]5[C@H](O)[C@H]3O)[C@H]3COC(=O)[C@H]23)OCO4)cc(OC)c1O [Etoposide]
Anthem's Genotox assay: LEC in μg/ml (genotoxic lowest effective test concentration) [2, 3]: 6.25 µg/mL

Nc1ccn([C@@H]2O[C@H](CO)[C@@H](O)[C@@H]2O)c(=O)n1 [AraC arabinoside]
Anthem's Genotox assay: promoter(s) that was(were) induced [2]: p21

O=c1c(O)c(-c2ccc(O)c(O)c2)oc2cc(O)cc(O)c12 [Querceti3n]
Anthem's Genotox assay: promoter(s) that was(were) induced [2]: GADD153

CC1COc2c(N3CCN(C)CC3)c(F)cc3c(=O)c(C(=O)O)cn1c23 (stereo not shown) [Ofloxacin]
Anthem's Genotox assay: LEC in μg/ml (genotoxic lowest effective test concentration) [2, 3]: 750.0 µg/mL | Anthem's Genotox assay: Result (assay time in h) ([2]; assay time 24 h, no metabolic activation, positive when reporter gene induction over 1.5 fold): + (positive for genotoxicity)
